Test results taken from patent publication US20040248887A1, “Inhibitors of cathepsin S” (IRM LLC, priority 2003, published 2004).

Each compound was assayed against Cathepsin S (Homo sapiens, UniProt P25774) (assay: Cathepsin S inhibition, fluorogenic peptide substrate kinetic assay). Details: Table II; Cathepsin S inhibition constant, pH5.5; read-out: Ki Cat. S.
Assay type: biochemical
Description: “Inhibition constant”, Ki, is the dissociation constant of the enzyme-inhibitor complex, or the reciprocal of the binding affinity of the inhibitor to the enzyme. […] The inhibited rates are then fit by nonlinear regression to the following equation: [formula]
where vo is the initial rate of substrate processing in the absence of inhibitor, v; is the initial rate of substrate processing at a concentration [I] of inhibitor, Km is the steady state Michaelis constant (Fersht, A. Structure and Mechanism in Protein Science. New York, W.H. Freeman and Company, 1999), and [S] is the concentration of competitive substrate.
The assumption being made for the classical inhibition described above is that the free inhibitor concentration is equal to the total inhibitor concentration.
The inhibition constant, Ki, can be determined from the apparent inhibition constant, Ki^app, for competitive inhibitors by using the following relationship: [formula]
The optimal substrate for cathepsin S, acetyl-histidine-proline-valine-lysine-amino carbamoyl coumarin, was identified from screening a combinatorial library of fluorogenic peptide substrates (Harris, J. L., B. J. Backes, et al., Proc Natl Acad Sci USA 2000, 97(14), 7754-9). Kinetic measurements are performed in a total reaction volume of 30 μl in 384-well microtiter plates. […] The reactions are initiated by adding the substrate, acetyl-histidine-proline-valine-lysine-amino carbamoyl coumarin, to a final concentration of 50 μM. The rate of substrate hydrolysis is measured by monitoring the increase in fluorescence at an excitation wavelength of 380 nm and an emission wavelength of 450 nm that results from cleavage of the aniline bond in the substrate by the enzyme. The apparent inhibition constants for the compounds are determined from the enzyme progress curves (Kuzmic, P., K. C. Elrod, et al., Anal Biochem 2000, 286(1), 45-50) and are then used to calculate the inhibition constants for competitive inhibitors.

Sequence of Cathepsin S (P25774 115-331, species assumed): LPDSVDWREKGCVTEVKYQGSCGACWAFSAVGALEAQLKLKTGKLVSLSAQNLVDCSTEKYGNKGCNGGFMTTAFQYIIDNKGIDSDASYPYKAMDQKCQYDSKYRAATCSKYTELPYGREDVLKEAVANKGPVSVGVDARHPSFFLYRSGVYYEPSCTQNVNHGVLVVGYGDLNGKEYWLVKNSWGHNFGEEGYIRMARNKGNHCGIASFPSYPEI

SMILES | Ki
CS(=O)(=O)N1CCC(Oc2ccc(C(=O)N[C@@H](CC3CCCCC3)C(=O)NCCN3CCc4cc(F)ccc43)cc2)CC1 [Compound 68, N-(S)-{2-cyclohexyl-1-[2-(5-fluoro-2,3-dihydro-indol-1-yl)-ethylcarbamoyl]-ethyl}-4-(1-methanesulfonyl-piperidin-4-yloxy)-benzamide] | < 1000 nM
C[C@@H](CNc1ccc(SC(F)(F)F)cc1)NC(=O)[C@H](CC1CCCCC1)NC(=O)c1ccc(-c2cccc(F)c2)o1 [Compound 119, 5-(3-Fluoro-phenyl)-furan-2-carboxylic acid {2-cyclohexyl-1-(S)-[1-(S)-methyl-2-(4-trifluoromethylsulfanyl-phenylamino)-ethylcarbamoyl]-ethyl}-amide] | < 100 nM
C[C@@H](CNc1ccc(OC(F)(F)F)cc1)NC(=O)[C@H](CC1CCCCC1)NC(=O)O[C@@H]1CCNC1 [Compound 187, {2-Cyclohexyl-1-(S)-[1-(S)-methyl-2-(4-trifluoromethoxy-phenylamino)-ethylcarbamoyl]-ethyl}-carbamic acid pyrrolidin-3-(R)-yl ester] | < 10000 nM
C[C@@H](CNc1ccc(O)cc1)NC(=O)[C@H](CC1CCCCC1)NC(=O)c1ccc(-c2cccc(F)c2)o1 [Compound 125, 5-(3-Fluoro-phenyl)-fuiran-2-carboxylic acid {2-cyclohexyl-1-(S)-[2-(4-hydroxy-phenylamino)-1-(S)-methyl-ethylcarbamoyl]-ethyl}-amide] | < 100 nM
CC(C(=O)N[C@@H](CC1CCCCC1)C(=O)NCCN1CCc2cc(F)ccc21)c1ccc(F)cc1 (stereo partly drawn) [Compound 62, N-{2-cyclohexyl-1-(S)-[2-(5-fluoro-2,3-dihydro-indol-1-yl)-ethylcarbamoyl]-ethyl}-2-(4-fluoro-phenyl)-propionamide] | < 1000 nM
C[C@@H](CN1c2ccc(F)cc2CC1(C)C)NC(=O)[C@H](CC1CCCCC1)NC(=O)C1CCOCC1 [Compound 139, Tetrahydropyran-4-carboxylic acid {2-cyclohexyl-1-(S)-[2-(5-fluoro-2,2-dimethyl-2,3-dihydro-indol-1-yl)-1-(S)-methyl-ethylcarbamoyl]-ethyl}-amide] | < 100 nM
C[C@@H](CNc1ccc(C#N)cc1)NC(=O)[C@H](CC1CCCCC1)NC(=O)c1ccc(-c2cccc(F)c2)o1 [Compound 93, 5-(3-Fluoro-phenyl)-furan-2-carboxylic acid {1-(S)-[2-(4-cyano-phenylamino)-1-(S)-methyl-ethylcarbamoyl]-2-cyclohexyl-ethyl}-amide] | < 1000 nM
COc1ccc(NCC(C)NC(=O)C(CC2CCCCC2)NC(=O)c2cccc(OC)c2)cc1 [Compound 26, N-{2-Cyclohexyl-(1S)-[2-(4-methoxy-phenylamino)-(1R)-methyl-ethylcarbamoyl]-ethyl}-3-methoxy-benzamide] | < 100 nM
O=C(NCCN1CCc2cc(F)ccc21)[C@H](CC1CCCCC1)NS(=O)(=O)c1cccs1 [Compound 235, (S)-3-Cyclohexyl-N-[2-(5-fluoro-2,3-dihydro-indol-1-yl)-ethyl]-2-(thiophene-2-sulfonylamino)-propionamide] | < 1000 nM
C[C@@H](CNc1ccc(C(=O)N(C)C)cc1)NC(=O)[C@H](CC1CCCCC1)NC(=O)c1ccc(-c2cccc(F)c2)o1 [Compound 122, 5-(3-Fluoro-phenyl)-furan-2-carboxylic acid {2-cyclohexyl-1-(S)-[2-(4-dimethylcarbamoyl-phenylamino)-1-(S)-methyl-ethylcarbamoyl]-ethyl}-amide] | < 100 nM
COc1cccc(C(=O)N[C@@H](CC(C)(C)C)C(=O)N[C@@H](CC(=O)OC(C)(C)C)CN2CCc3cc(F)ccc32)c1 [Compound 160, 4-(5-Fluoro-2,3-dihydro-indol-1-yl)-3-(S)-[2-(S)-(3-methoxy-benzoylamino)-4,4-dimethyl-pentanoylamino]-butyric acid tert-butyl ester] | < 100 nM
C[C@@H](CN1CCc2cc(F)ccc21)NC(=O)[C@H](CC1CCCCC1)NS(=O)(=O)c1cccc(OC(F)(F)F)c1 [Compound 254, (S,S)-3-Cyclohexyl-N-[2-(5-fluoro-2,3-dihydro-indol-1-yl)-1-methyl-ethyl]-2-(3-trifluoromethoxy-benzenesulfonylamino)-propionamide] | < 100 nM
C[C@@H](CNc1cccc(Cl)c1F)NC(=O)[C@H](CC1CCCCC1)NC(=O)c1ccc(-c2cccc(F)c2)o1 [Compound 96, 5-(3-Fluoro-phenyl)-furan-2-carboxylic acid {1-(S)-[2-(3-chloro-2-fluoro-phenylamino)-1-(S)-methyl-ethylcarbamoyl]-2-cyclohexyl-ethyl}-amide] | < 1000 nM
COc1ccc(NCC(C)NC(=O)C(CCC2CCCCC2)NC(=O)c2cc3ccccc3[nH]2)cc1 (mixture of isomers) [Compound 24] | < 1000 nM
C[C@@H](CN1CCc2cc(F)ccc21)NC(=O)[C@H](CC1CCCCC1)NC(=O)OCc1ccccc1 [Compound 174, {2-Cyclohexyl-1-(S)-[2-(5-fluoro-2,3-dihydro-indol-1-yl)-1-(S)-methyl-ethylcarbamoyl]-ethyl}-carbamic acid benzyl ester] | < 100 nM
C[C@@H](CNc1ccc(OC(F)(F)F)cc1)NC(=O)[C@H](CC1CCCCC1)NC(=O)c1nc(-c2cccc(F)c2)no1 [Compound 108, 3-(3-Fluoro-phenyl)-[1,2,4]oxadiazole-5-carboxylic acid {2-cyclohexyl-1-(S)-[1-(S)-methyl-2-(4-trifluoromethoxy-phenylamino)-ethylcarbamoyl]-ethyl}-amide] | < 100 nM
Cc1cccc(C(=O)N[C@H](C(=O)NCCN2CCc3cc(F)ccc32)C2CCCCC2)c1 [Compound 193, N-((S)-(2-(5-fluoroindolin-1-yl)ethylcarbamoyl)(cyclohexyl)methyl)-3-methylbenzamide] | < 1000 nM
C[C@@H](CNc1ccc(OC(F)(F)F)cc1)NC(=O)[C@H](CC1CCCCC1)NS(=O)(=O)c1cccnc1 [Compound 183, (S,S)-3-Cyclohexyl-N-[1-methyl-2-(4-trifluoromethoxy-phenylamino)-ethyl]-2-(pyridine-3-sulfonylamino)-propionamide] | < 100 nM
O=C(NCCN1CCc2cc(F)ccc21)[C@H](CC1CCCCC1)NS(=O)(=O)c1cc(Cl)c(Cl)s1 [Compound 258, (S)-3-Cyclohexyl-2-(4,5-dichloro-thiophene-2-sulfonylamino)-N-[2-(5-fluoro-2,3-dihydro-indol-1-yl)-ethyl]-propionamide] | < 1000 nM
C[C@@H](CNc1ccc(OC(F)(F)F)cc1)NC(=O)[C@H](CC1CCCCC1)NC(=O)c1nc(-c2ccc(F)cc2)no1 [Compound 109, 3-(4-Fluoro-phenyl)-[1,2,4]oxadiazole-5-carboxylic acid {2-cyclohexyl-1-(S)-[1-(S)-methyl-2-(4-trifluoromethoxy-phenylamino)-ethylcarbamoyl]-ethyl}-amide] | < 100 nM
COCC(=O)N[C@@H](CC1CCCCC1)C(=O)N[C@@H](C)CNc1ccc(OC(F)(F)F)cc1 [Compound 124, 3-Cyclohexyl-2-(S)-(2-methoxy-acetylamino)-N-[1-(S)-methyl-2-(4-trifluoromethoxy-phenylamino)-ethyl]-propionamide] | < 100 nM
O=C(N[C@@H](CC1CCCCC1)C(=O)NCCN1CCc2cc(F)ccc21)c1ccoc1 [Compound 13, Furan-3-carboxylic acid (S)-{2-cyclohexyl-1-[2-(5-fluoro-2,3-dihydro-indol-1-yl)-ethylcarbamoyl]-ethyl}-amide] | < 100 nM
